Assay results reported in ChEMBL document CHEMBL5344413, “Discovery of 4-(1,2,4-Oxadiazol-5-yl)azepan-2-one Derivatives as a New Class of Cannabinoid Type 2 Receptor Agonists for the Treatment of Inflammatory Pain” (J Med Chem, 2023).

How the values were obtained:
[1] = target: T1, Cannabinoid receptor 2 (Homo sapiens, UniProt P34972); test: Agonist activity at human CB2 receptor expressed in CHO cells assessed as inhibition of forskolin-stimulated intracellular cAMP accumulation measured after 30 mins by Glosensor assay; type: functional, cell-based
T1 sequence (P34972 whole entry): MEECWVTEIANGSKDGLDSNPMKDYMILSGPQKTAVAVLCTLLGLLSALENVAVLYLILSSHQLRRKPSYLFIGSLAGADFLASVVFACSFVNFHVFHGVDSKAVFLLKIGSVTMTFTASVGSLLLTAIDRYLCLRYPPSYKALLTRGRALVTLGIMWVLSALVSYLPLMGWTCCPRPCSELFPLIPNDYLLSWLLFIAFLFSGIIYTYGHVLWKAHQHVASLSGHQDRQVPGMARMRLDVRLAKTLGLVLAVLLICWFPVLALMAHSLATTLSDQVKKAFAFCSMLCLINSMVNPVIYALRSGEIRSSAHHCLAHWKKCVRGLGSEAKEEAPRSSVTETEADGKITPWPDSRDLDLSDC

[2] = target: T2, Cannabinoid receptor 1 (Homo sapiens, UniProt P21554); test: Agonist activity at human CB1 receptor expressed in CHO cells assessed as inhibition of forskolin-stimulated intracellular cAMP accumulation measured after 30 mins by Glosensor assay; type: cell-based
T2 sequence (P21554 whole entry): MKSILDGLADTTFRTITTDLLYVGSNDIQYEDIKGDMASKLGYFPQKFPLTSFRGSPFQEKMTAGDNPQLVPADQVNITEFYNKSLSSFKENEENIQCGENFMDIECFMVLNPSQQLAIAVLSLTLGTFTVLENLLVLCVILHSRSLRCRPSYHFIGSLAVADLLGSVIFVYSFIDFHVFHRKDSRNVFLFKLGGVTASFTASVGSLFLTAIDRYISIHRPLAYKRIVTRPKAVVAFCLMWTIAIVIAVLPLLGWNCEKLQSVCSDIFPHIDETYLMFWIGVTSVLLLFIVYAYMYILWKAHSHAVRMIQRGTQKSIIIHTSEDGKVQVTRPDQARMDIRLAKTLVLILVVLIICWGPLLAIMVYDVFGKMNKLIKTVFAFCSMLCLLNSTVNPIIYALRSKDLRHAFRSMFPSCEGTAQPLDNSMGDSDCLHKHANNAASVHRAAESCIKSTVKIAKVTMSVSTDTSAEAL

[3] = target: T1, Cannabinoid receptor 2; test: Agonist activity at human CB2 receptor expressed in CHO cells assessed as inhibition of forskolin-stimulated intracellular cAMP accumulation measured after 30 mins by Glosensor assay relative to control; type: functional, cell-based; details: filed as agonist
[4] = target: T2, Cannabinoid receptor 1; test: Inverse agonist activity at human CB1 receptor expressed in CHO cells assessed as forskolin-stimulated intracellular cAMP accumulation measured after 30 mins by Glosensor assay; type: cell-based
[5] = species on record: Homo sapiens; test: Selectivity ratio of EC50 for agonist activity at human CB1 receptor expressed in CHO cells to EC50 for agonist activity at human CB2 receptor expressed in CHO cells; type: cell-based
[6] = target: T1, Cannabinoid receptor 2; test: Inverse agonist activity at human CB2 receptor expressed in CHO cells assessed as forskolin-stimulated intracellular cAMP accumulation measured after 30 mins by Glosensor assay; type: functional, cell-based

Structure (SMILES)	EC50 [1] [µM]	EC50 [2] [µM]	Emax [3] [%]	EC50 [4] [µM]	Ratio EC50 [5]	EC50 [6] [µM]
O=C(c1ccc(F)cc1)N1CC2(CC(c3nc(-c4ccccc4)no3)C2)C1	> 10	> 10	–	–	–	–
O=C1CC(c2nc(Cc3ccccc3F)no2)CCCN1c1ccc(F)cc1 (centres undefined)	> 10	> 10	–	–	–	–
O=C1C[C@H](c2nc(-c3ccc(F)c4cn[nH]c34)no2)CCCN1c1ccc(F)cc1	0.0348	> 30	102	–	–	–
O=C1CC(c2nc(-c3ccc(F)c4cn[nH]c34)no2)CCCN1c1cccc(F)c1F (centres undefined)	0.332	> 10	92	–	–	–
O=C1CC(c2nc(-c3ccc(F)cc3)no2)CCCN1c1ccc(F)cc1 (centres undefined)	1.39	> 10	91	–	–	–
O=C1CC(c2nc(-c3ccncc3)no2)CCCN1c1ccc(F)cc1 (centres undefined)	> 10	> 10	–	–	–	–
O=C1CC(c2nc(-c3ccc(F)cc3F)no2)CCCN1c1ccc(F)cc1 (centres undefined)	> 10	> 10	–	–	–	–
Cc1ccc(N2CCCC(c3nc(-c4ccc(F)c5cn[nH]c45)no3)CC2=O)cc1 (centres undefined)	1.35	> 10	82	–	–	–
COc1ccc(N2CCCC(c3nc(-c4ccc(F)c5cn[nH]c45)no3)CC2=O)cc1 (centres undefined)	1.21	> 10	101	–	–	–
O=C1CC(c2nc(-c3ccc(Cl)cc3)no2)CCCN1c1ccc(F)cc1 (centres undefined)	> 10	> 10	–	–	–	–
O=C1C[C@@H](c2nc(-c3ccc(F)c4cn[nH]c34)no2)CCCN1c1ccc(F)cc1	0.0587	> 30	80	–	–	–
O=C1CC(c2nc(-c3ccc(F)c4cn[nH]c34)no2)CCCN1c1ccc(OC(F)(F)F)cc1 (centres undefined)	2.05	> 10	74	–	–	–
O=C1CC(c2nc(Cc3cccc(F)c3)no2)CCCN1c1ccc(F)cc1 (centres undefined)	> 10	> 10	–	–	–	–
O=C1CC(c2nc(-c3ccc(F)c4cn[nH]c34)no2)CCCN1c1ccc(F)cc1F (centres undefined)	0.11	> 10	100	–	–	–
Fc1ccc(Nc2ccc(-c3nc(-c4ccccc4)no3)cc2)cc1	> 10	> 10	–	–	–	–
O=C1CC(c2nc(-c3ccc(F)cc3Cl)no2)CCCN1c1ccc(F)cc1 (centres undefined)	> 10	> 10	–	–	–	–
O=C1CC(c2nc(-c3ccc(F)c4cn[nH]c34)no2)CCCN1c1cccc(F)c1 (centres undefined)	1.31	> 10	79	–	–	–
COc1cc(F)ccc1-c1noc(C2CCCN(c3ccc(F)cc3)C(=O)C2)n1 (centres undefined)	0.445	> 10	91	–	–	–
O=C1CC(c2nc(-c3ccc(F)c4cn[nH]c34)no2)CCCN1c1cc(F)c(F)c(F)c1 (centres undefined)	0.338	–	102	> 10	–	–
O=C1CC(c2nc(-c3ccc(F)c4cc[nH]c34)no2)CCCN1c1ccc(F)cc1 (centres undefined)	0.449	> 10	123	–	–	–
O=C1CC(c2nc(-c3ccc(F)cc3C(F)(F)F)no2)CCCN1c1ccc(F)cc1 (centres undefined)	> 10	> 10	–	–	–	–

Structure (SMILES)	EC50 [1] [µM]	EC50 [2] [µM]	Emax [3] [%]	EC50 [4] [µM]	Ratio EC50 [5]	EC50 [6] [µM]
O=C1CC(c2nc(-c3ccc(F)c4cn[nH]c34)no2)CCCN1c1ccc(Cl)cc1 (centres undefined)	0.805	> 10	112	–	–	–
O=C1CC(c2nc(Cc3ccccc3)no2)CCCN1c1ccc(F)cc1 (centres undefined)	> 10	> 10	–	–	–	–
Fc1ccc(Nc2cccc(-c3nc(-c4ccccc4)no3)c2)cc1	> 10	> 10	–	–	–	–
O=C1CC(c2nc(-c3ccc(F)c4cn[nH]c34)no2)CCCN1c1ccc(C(F)(F)F)cc1 (centres undefined)	> 10	> 10	–	–	–	–
O=C1CC(c2nc(-c3ccc(F)c4cn[nH]c34)no2)CCCN1c1ccccc1 (centres undefined)	0.3	> 10	88	–	–	–
O=C1CC(c2nc(Cc3ccc(F)cc3)no2)CCCN1c1ccc(F)cc1 (centres undefined)	> 10	> 10	–	–	–	–
O=C(c1ccc(F)cc1)N1CCC(c2nc(-c3ccccc3)no2)CC1	> 10	> 10	–	–	–	–
Cc1cc(F)ccc1-c1noc(C2CCCN(c3ccc(F)cc3)C(=O)C2)n1 (centres undefined)	3.3	> 10	–	–	–	–
O=C1CC(c2nc(-c3ccc(F)c4cn[nH]c34)no2)CCCN1c1ccccc1F (centres undefined)	0.0454	> 10	93	–	–	–
O=C1CC(c2nc(-c3ccc(F)cn3)no2)CCCN1c1ccc(F)cc1 (centres undefined)	> 10	> 10	–	–	–	–
CC(=O)c1ccc(N2CCCC(c3nc(-c4ccc(F)c5cn[nH]c45)no3)CC2=O)cc1 (centres undefined)	> 10	> 10	–	–	–	–
O=C1CC(c2nc(-c3ccc(F)c4cn[nH]c34)no2)CCCN1c1ccc(F)c(F)c1 (centres undefined)	0.318	> 10	81	–	–	–
O=C1CC(c2nc(-c3ccccc3)no2)CCCN1c1ccc(F)cc1 (centres undefined)	2.81	> 30	78	–	> 10	–
O=C(NCCc1nc(-c2ccccc2)no1)c1ccc(F)cc1	–	> 10	–	–	–	> 10
O=C1CC(c2nc(-c3cccc(F)c3)no2)CCCN1c1ccc(F)cc1 (centres undefined)	2.12	> 10	97	–	–	–
O=C1CC(c2nc(-c3ccc(F)c4ccccc34)no2)CCCN1c1ccc(F)cc1 (centres undefined)	1.21	> 10	97	–	–	–
O=C1C=C(c2nc(-c3ccccc3)no2)CCCN1c1ccc(F)cc1	> 10	> 10	–	–	–	–
CN1CCCC(c2nc(-c3ccc(F)c4cn[nH]c34)no2)CC1=O (centres undefined)	> 10	> 10	–	–	–	–
O=C1CC(c2nc(-c3ccccc3F)no2)CCCN1c1ccc(F)cc1 (centres undefined)	> 10	> 10	–	–	–	–
O=C(c1ccc(F)cc1)N1CC(c2nc(-c3ccccc3)no2)C1	> 10	> 10	–	–	–	–
O=C1CC(c2nc(-c3ccccc3)no2)CCN1c1ccc(F)cc1 (centres undefined)	> 10	> 10	–	–	–	–
